According to article PMC9492542, “Brain-restricted mTOR inhibition with binary pharmacology” (Nature, 2022):
“And” between values parts separate entries of the source, which are not always exact repeats. Identical values can stand only once. Like-named read-outs stand apart in the source and are kept apart here.

Key:
[1] = biological target: T1, FKBP12 (Homo sapiens, UniProt P62942); assay: Competition fluorescence polarization assay with FITC-rapamycin tracer; format: binding
T1 construct: His-tag (HRV 3C cleavable) (cleaved yes); made in house; host or cells: Escherichia coli BL21(DE3)
T1 sequence (P62942 whole entry): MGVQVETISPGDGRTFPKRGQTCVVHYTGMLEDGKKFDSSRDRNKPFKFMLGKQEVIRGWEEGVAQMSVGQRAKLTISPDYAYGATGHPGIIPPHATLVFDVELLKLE
Experimental: Compound binding affinity was determined using a competition fluorescence polarization assay. […] The assay buffer was 20 mM HEPES pH 7.5 and 0.01% Triton X-100. […] Data were fitted to a three-parameter sigmoidal curve to derive IC50 values. Ki of the compounds were calculated using a tool provided by S. Wang’s laboratory (http://www.umich.edu/~shaomengwanglab/software/calc_ki/index.html). Data were plotted in GraphPad Prism 9.0.

[2] = tested on: NFAT; assay: NFAT activation assay (Jurkat-Lucia NFAT luciferase reporter, PMA/ionomycin); format: cell-based; conditions: for IC50: Homo sapiens, Jurkat NFAT luciferase, PMA + ionomycin
Experimental: Jurkat-Lucia NFAT cells were resuspended to 2 × 10^6 cells per ml in fresh growth medium and dispensed in 96-well tissue culture plates (Corning 3904; 180 µl per well). DMSO solutions of test compounds at 100× the test concentrations were added and the cells were incubated for 4 h at 37 °C. A 10× stimulation solution containing phorbol myristate acetate (100 ng ml^–1) and ionomycin (10 µg ml^–1) were added to each well (20 µl per well) except for the negative control wells, which were supplemented with 20 µl medium. Cells were incubated at 37 °C for 12 h. Cells (20 µl per well) were transferred into a white opaque 96-well plate (Corning 3912). TECAN Spark 20M plate reader equipped with an auto-injection system was primed with Lucia luciferase substrate solution and set with the following parameters: 50 µl of injection volume, end-point measurement with a 4-s delay time and 0.1-s integration time. Luciferase activity was measured with the settings above and normalized to DMSO-treated, stimulated cells. Data were plotted in GraphPad Prism 9.0.

[3] = tested on: human PBMCs; assay: Proliferation of anti-CD3/anti-CD28 stimulated PBMCs (120 h); format: cell-based
[4] = tested on: mTOR; assay: mTOR signalling in mouse whole brain and skeletal muscle after single i.p. dose (immunoblot, insulin stimulated); format: in vivo; conditions: for p-4EBP1 Brain, fold relative to no insulin, normalized to GAPDH / p-4EBP1 Muscle, fold relative to no insulin, normalized to GAPDH / p-RPS6 Brain, fold relative to no insulin, normalized to GAPDH / p-RPS6 Muscle, fold relative to no insulin, normalized to GAPDH: RL1 1 mg/kg, RB 40 mg/kg, insulin 250 mU, listed as RB
Experimental: Whole brain and skeletal muscle were analyzed by immunoblot.

[5] = tested on: U87MG; assay: Orthotopic intracranial U87MG-luciferase glioblastoma xenograft
[6] = tested on: GBM43; assay: Orthotopic intracranial GBM43-luciferase patient-derived glioblastoma xenograft; conditions: GBM43-Luc
[7] = tested on: mTOR; assay: Immunoblot analysis of mTOR signalling (p-S6, p-4EBP1) in MCF7 cells, incl. screen for blocking of rapamycin/RapaLink-1
[8] = U87MG-Luc, day 0, individual mice
[9] = U87MG-Luc, day 5, individual mice
[10] = U87MG-Luc, day 10, individual mice
[11] = U87MG-Luc, day 15, individual mice
[12] = U87MG-Luc, day 20, individual mice

SMILES: CO[C@H]1C[C@@H](C)C/C(C)=C/[C@@H](CCCc2cccc[n+]2[O-])C(=O)C[C@H](O)[C@@H](C)[C@@H](/C(C)=C/[C@@H]2CC[C@@H](O)[C@H](OC)C2)OC(=O)[C@@H]2CCCCN2C(=O)C(=O)[C@]2(O)O[C@H]1[C@@H](OC)C[C@H]2C [RapaBlock]
- fluorescence polarization (competition, raw) ([1]; 0.0976562 nM compound): 114 and 112
- fluorescence polarization (competition, raw) ([1]; 0.195312 nM compound): 114 and 112
- fluorescence polarization (competition, raw) ([1]; 0.390625 nM compound): 112 and 110
- fluorescence polarization (competition, raw) ([1]; 0.78125 nM compound): 110 and 109
- fluorescence polarization (competition, raw) ([1]; 1.5625 nM compound): 109
- fluorescence polarization (competition, raw) ([1]; 3.125 nM compound): 100 and 104
- fluorescence polarization (competition, raw) ([1]; 6.25 nM compound): 86 and 88
- fluorescence polarization (competition, raw) ([1]; 12.5 nM compound): 74
- fluorescence polarization (competition, raw) ([1]; 25 nM compound): 64 and 62
- fluorescence polarization (competition, raw) ([1]; 50 nM compound): 56 and 58
- fluorescence polarization (competition, raw) ([1]; 100 nM compound): 46 and 55
- Ki ([1]; Extended Data Fig. 4b, n = 3, read-out: Ki(FKBP12)): 1.4 nM
- Ki ([1]; Fig. 2d, fluorescein-labelled rapamycin tracer, read-out: FKBP12 Ki): 3.1 nM
- Kd ([1]; measured in-house in a single fluorescence polarization experiment, read-out: Kd3 (RapaBlock binding to FKBP)): 2.5 nM
- Kd ([1]; recombinant FKBP12, Extended Data Fig. 2, read-out: Kd (FKBP12)): 1.6 nM
- NFAT luciferase activity, normalized to DMSO-treated stimulated cells ([2]; 0.00512 nM): 93 and 91.3 and 97
- NFAT luciferase activity, normalized to DMSO-treated stimulated cells ([2]; 0.0256 nM): 97.8 and 104.3 and 98.9
- NFAT luciferase activity, normalized to DMSO-treated stimulated cells ([2]; 0.128 nM): 95.3 and 89 and 97
- NFAT luciferase activity, normalized to DMSO-treated stimulated cells ([2]; 0.64 nM): 97.6 and 92.3 and 99.2
- NFAT luciferase activity, normalized to DMSO-treated stimulated cells ([2]; 16 nM): 100.2 and 101.6 and 105.7
- NFAT luciferase activity, normalized to DMSO-treated stimulated cells ([2]; 80 nM): 104.1 and 109.3 and 105.3
- NFAT luciferase activity, normalized to DMSO-treated stimulated cells ([2]; 400 nM): 109.4 and 107.4 and 106.7
- NFAT luciferase activity, normalized to DMSO-treated stimulated cells ([2]; 2000 nM): 112.3 and 110 and 113.9
- NFAT luciferase activity, normalized to DMSO-treated stimulated cells ([2]; 10000 nM): 112 and 113.2 and 110.3
- inhibitory activity for calcineurin ([2]; Fig. 2e): does not exhibit any inhibitory activity for calcineurin
- IC50 [2]: > 10000 nM
- shift of RapaLink-1 IC50 for PBMC proliferation by addition of RapaBlock ([3]; 5 days): more than 100 fold
- protection of PBMCs from rapamycin-mediated growth inhibition ([3]; compared with protection from RapaLink-1): appeared more effective at protecting PBMCs from rapamycin-mediated growth inhibition
- relative proliferation compared to DMSO-treated cells ([3]; constant 10 µM RapaBlock, low RapaLink-1/rapamycin concentrations): ~ 100%
- p-4EBP1 Brain, fold relative to no insulin, normalized to GAPDH ([4]; 4h): 1.83 and 2 and 1.39
- p-4EBP1 Muscle, fold relative to no insulin, normalized to GAPDH ([4]; 4h): 1.7 and 2.09 and 1.93
- p-RPS6 Brain, fold relative to no insulin, normalized to GAPDH ([4]; 4h): 1.92 and 2.13 and 3
- p-RPS6 Muscle, fold relative to no insulin, normalized to GAPDH ([4]; 4h): 2.39 and 2.47 and 2.32
- p-4EBP1 Brain, fold relative to no insulin, normalized to GAPDH ([4]; 24h): 1.46 and 1.83 and 1.26
- p-4EBP1 Muscle, fold relative to no insulin, normalized to GAPDH ([4]; 24h): 2.04 and 2.08 and 2.19
- p-RPS6 Brain, fold relative to no insulin, normalized to GAPDH ([4]; 24h): 1.78 and 1.76 and 3.3
- p-RPS6 Muscle, fold relative to no insulin, normalized to GAPDH ([4]; 24h): 3.51 and 2.13 and 2.07
- tissue-specific protection from RapaLink-1 (in vivo screen) ([4]; RapaLink-1 1 mg per kg + candidate 40 mg per kg): protected peripheral tissues from RapaLink-1 but allowed potent inhibition of mTOR in the brain
- tumour growth and survival ([5]; RapaLink-1 1 mg per kg, RapaBlock 40 mg per kg, i.p. every 5 days): no significant effect on either
- Mouse weight [5, 8]: 23.7 g and 18.4 g and 20.5 g and 22.9 g and 23.2 g and 19.4 g
- Tumor size (measured by bioluminescence) [5, 8]: 17700000 and 2260000 and 10400000 and 10700000 and 2010000 and 11600000
- Mouse weight [5, 9]: 25.1 g and 20.4 g and 22.3 g and 25.2 g and 24.1 g and 21.1 g
- Tumor size (measured by bioluminescence) [5, 9]: 43100000 and 13000000 and 366000 and 28000000 and 11500000 and 3180000
- Mouse weight [5, 10]: 24.6 g and 21.1 g and 22.5 g and 25.3 g and 23.8 g and 21.3 g
- Tumor size (measured by bioluminescence) [5, 10]: 1970000 and 19800000 and 27300000 and 73500000 and 25400000 and 8750000
- Mouse weight [5, 11]: 24.4 g and 21.8 g and 23 g (2×) and 25 g and 21.9 g
- Tumor size (measured by bioluminescence) [5, 11]: 1140000000 and 112000000 and 171000000 and 820000000 and 161000000 and 1140000
- Mouse weight [5, 12]: 19.5 g and 24.1 g and 23.9 g and 23.1 g
- Tumor size (measured by bioluminescence) [5, 12]: 6750000000 and 1500000000 and 1360000000 and 47000000 and 739000000
- Mouse survival ([5]; U87MG-Luc, individual mice): 25 days and 21 days and 28 days and 23 days
- Mouse weight ([6]; day 0, individual mice): 22.5 g and 18.4 g and 23.4 g and 24.1 g and 22.4 g and 24.3 g
- Tumor size (measured by bioluminescence) ([6]; day 0, individual mice): 545000 and 240000 and 88600 and 6780000 and 3240000 and 1560000
- Mouse weight ([6]; day 4, individual mice): 22.5 g and 20 g and 24 g and 25.1 g and 23.3 g and 25 g
- Tumor size (measured by bioluminescence) ([6]; day 4, individual mice): 550000 and 781000 and 188000 and 20000000 and 920000 and 2990000
- Mouse weight ([6]; day 7, individual mice): 22 g and 20 g and 25 g (2×) and 23.4 g and 25.8 g
- Tumor size (measured by bioluminescence) ([6]; day 7, individual mice): 42300000 and 19300000 and 2230000 and 1130000000 and 47100000 and 178000000
- Mouse weight ([6]; day 10, individual mice): 21.7 g and 19.6 g and 24.5 g and 24.8 g (2×) and 22.7 g
- Tumor size (measured by bioluminescence) ([6]; day 10, individual mice): 782000000 and 3210000 and 104000000 and 3810000000 and 1590000000 and 1220000000
- Mouse survival ([6]; individual mice): 16 days and 17 days and 18 days
- blocking of rapamycin (phospho-S6 signal) ([7]; MCF7, 100:1 stoichiometry RapaBlock:rapamycin): restoring the phospho-S6 signal to the same level as untreated cells
- attenuation of RapaLink-1 effects on mTOR signalling ([7]; MCF7, 4 h, with 10 nM RapaLink-1): attenuates the pharmacological effects of RapaLink-1 in a dose-dependent manner
- effect on mTOR signalling by itself ([7]; cultured cells, up to 10 µM): does not affect mTOR signalling by itself

SMILES: C=CC[C@@H]1/C=C(\C)C[C@H](C)C[C@H](OC)[C@H]2O[C@@](O)(C(=O)C(=O)N3CCCC[C@H]3C(=O)O[C@H](/C(C)=C/[C@@H]3CC[C@@H](O)[C@H](OC)C3)[C@H](C)[C@@H](O)CC1=O)[C@H](C)C[C@@H]2OC [FK506]
- fluorescence polarization (competition, raw) ([1]; 0.0976562 nM compound): 108
- fluorescence polarization (competition, raw) ([1]; 0.195312 nM compound): 110 and 109
- fluorescence polarization (competition, raw) ([1]; 0.390625 nM compound): 108
- fluorescence polarization (competition, raw) ([1]; 0.78125 nM compound): 107 and 103
- fluorescence polarization (competition, raw) ([1]; 1.5625 nM compound): 104 and 103
- fluorescence polarization (competition, raw) ([1]; 3.125 nM compound): 92 and 96
- fluorescence polarization (competition, raw) ([1]; 6.25 nM compound): 75 and 72
- fluorescence polarization (competition, raw) ([1]; 12.5 nM compound): 66 and 60
- fluorescence polarization (competition, raw) ([1]; 25 nM compound): 57 and 55
- fluorescence polarization (competition, raw) ([1]; 50 nM compound): 53 and 55
- fluorescence polarization (competition, raw) ([1]; 100 nM compound): 46 and 51
- NFAT luciferase activity, normalized to DMSO-treated stimulated cells ([2]; 0.00512 nM): 103.4 and 90.3 and 99.2
- NFAT luciferase activity, normalized to DMSO-treated stimulated cells ([2]; 0.0256 nM): 93.6 and 87.2 and 91.4
- NFAT luciferase activity, normalized to DMSO-treated stimulated cells ([2]; 0.128 nM): 35.5 and 35.2 and 38.5
- NFAT luciferase activity, normalized to DMSO-treated stimulated cells ([2]; 0.64 nM): 0.2
- NFAT luciferase activity, normalized to DMSO-treated stimulated cells ([2]; 16 nM): 0.1
- NFAT luciferase activity, normalized to DMSO-treated stimulated cells ([2]; 80 nM): 0.1 and 0.2
- NFAT luciferase activity, normalized to DMSO-treated stimulated cells ([2]; 400 nM): 0.1 and 0.2
- NFAT luciferase activity, normalized to DMSO-treated stimulated cells ([2]; 2000 nM): 0.2
- NFAT luciferase activity, normalized to DMSO-treated stimulated cells ([2]; 10000 nM): 0.2
- IC50 [2]: 0.094 ± 0.008 nM
